According to patent publication US20230159532A1, “PARATHYROID HORMONE (PTH) RECEPTOR ANTAGONISTS AND USES THEREOF” (Crinetics Pharmaceuticals, Inc., priority 2021, published 2023):

Target: T1, human PTHR1 receptor (Homo sapiens, UniProt Q03431)
T1 construct: purchased Eurofins HTS030M
T1 sequence (Q03431 27-593): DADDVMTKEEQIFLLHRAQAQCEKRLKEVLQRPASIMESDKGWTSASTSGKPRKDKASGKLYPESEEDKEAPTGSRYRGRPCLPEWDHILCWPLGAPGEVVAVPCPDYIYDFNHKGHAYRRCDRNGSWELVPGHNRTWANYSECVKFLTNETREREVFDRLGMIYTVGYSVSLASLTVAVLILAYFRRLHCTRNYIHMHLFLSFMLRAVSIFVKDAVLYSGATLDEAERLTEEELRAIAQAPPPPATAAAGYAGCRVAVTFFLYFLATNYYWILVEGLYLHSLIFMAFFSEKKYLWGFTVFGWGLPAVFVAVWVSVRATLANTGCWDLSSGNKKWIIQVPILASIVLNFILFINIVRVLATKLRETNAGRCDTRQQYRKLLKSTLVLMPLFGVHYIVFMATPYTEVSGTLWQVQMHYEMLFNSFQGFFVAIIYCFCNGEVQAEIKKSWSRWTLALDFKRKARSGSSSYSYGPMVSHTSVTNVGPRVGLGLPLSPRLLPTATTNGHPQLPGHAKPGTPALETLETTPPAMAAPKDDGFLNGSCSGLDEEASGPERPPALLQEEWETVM
Experiment: Competitive antagonist binding assay for hPTH-R1 (radioactive competition binding, SPA beads)
Details: human PTHR1 membranes, [125I]-[Nle8,18,Tyr34]-PTH(1-34) 0.2 nM, 90 minutes at room temperature; read-out: hPTHR1 Ki
How it was run: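 Human PTHR1 membranes on SPA beads incubated 90 min at room temperature with compound (typically 0-10,000 nM final) and 0.2 nM [125I]-[Nle8,18,Tyr34]-PTH(1-34) in HEPES buffer with MgCl2, CaCl2, BSA, Triton X-100 and protease inhibitors, pH 7.4. Scintillation signal read; Ki values derived.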

Row | Structure (SMILES) | Ki
1 | CCN1C(=O)N(c2c(F)cc(NCCNC)cc2F)c2cc(Cl)ccc2-c2c1ncc(F)c2C [3-7, 13-chloro-10-(2,6-difluoro-4-{[2-(methylamino)ethyl]amino}phenyl)-8-ethyl-4-fluoro-3-methyl-6,8,10-triazatricyclo[9.4.0.0^2,7]pentadeca-1(11),2(7),3,5,12,14-hexaen-9-one] | < 100 nM
2 | CNCCNc1cc(F)c(N2C(=O)N(C(C)C)c3ncc(F)cc3-c3c(C)cc(Cl)cc32)c(F)c1 [1-78, 13-chloro-10-(2,6-difluoro-4-{[2-(methylamino)ethyl]amino}phenyl)-4-fluoro-15-methyl-8-(propan-2-yl)-6,8,10-triazatricyclo[9.4.0.0^2,7]pentadeca-1(11),2(7),3,5,12,14-hexaen-9-one] | < 100 nM
3 | CCN1C(=O)N(c2c(F)cc(N3CCN(CCO)CC3)cc2F)c2cc(C#N)ccc2-c2cc(Cl)cnc21 [1-144, 4-chloro-10-{2,6-difluoro-4-[4-(2-hydroxyethyl)piperazin-1-yl]phenyl}-8-ethyl-9-oxo-6,8,10-triazatricyclo[9.4.0.0^2,7]pentadeca-1(11),2(7),3,5,12,14-hexaene-13-carbonitrile] | < 100 nM
4 | CCN1C(=O)N(c2c(F)cc(NCCN)cc2F)c2cc(Cl)ccc2-c2cccnc21 [1-3, 10-{4-[(2-aminoethyl)amino]-2,6-difluorophenyl}-13-chloro-8-ethyl-6,8,10-triazatricyclo[9.4.0.0^2,7]pentadeca-1(11),2(7),3,5,12,14-hexaen-9-one] | < 100 nM
5 | CCN1C(=O)N(c2c(F)cc(NCCNCCO)cc2F)c2cc(Cl)ccc2-c2nc(C#N)ccc21 [3-15, 13-chloro-10-[2,6-difluoro-4-({2-[(2-hydroxyethyl)amino]ethyl}amino)phenyl]-8-ethyl-9-oxo-3,8,10-triazatricyclo[9.4.0.0^2,7]pentadeca-1(11),2(7),3,5,12,14-hexaene-4-carbonitrile] | 1000 to 10000 nM
6 | CCN1C(=O)N(c2c(F)cc(NCCN[C@@H]3CC[C@H]3O)cc2F)c2cc(C#N)ccc2-c2cc(C(F)(F)F)cnc21 [1-196, 10-{2,6-difluoro-4-[(2-{[(1R,2R)-2-hydroxycyclobutyl]amino}ethyl)amino]phenyl}-8-ethyl-9-oxo-4-(trifluoromethyl)-6,8,10-triazatricyclo[9.4.0.0^2,7]pentadeca-1(11),2(7),3,5,12,14-hexaene-13-carbonitrile] | < 100 nM
7 | CCN1C(=O)N(c2c(F)cc(NCCNCCO)cc2F)c2cc(C#N)c(OC)cc2-c2cc(F)cnc21 [3-23, 10-[2,6-difluoro-4-({2-[(2-hydroxyethyl)amino]ethyl}amino)phenyl]-8-ethyl-4-fluoro-14-methoxy-9-oxo-6,8,10-triazatricyclo[9.4.0.0^2,7]pentadeca-1(11),2(7),3,5,12,14-hexaene-13-carbonitrile] | < 100 nM
8 | CCN1C(=O)N(c2c(F)cc(NCCNC)cc2F)c2cc(Cl)cc(F)c2-c2cc(Cl)cnc21 [1-61, 4,13-dichloro-10-(2,6-difluoro-4-{[2-(methylamino)ethyl]amino}phenyl)-8-ethyl-15-fluoro-6,8,10-triazatricyclo[9.4.0.0^2,7]pentadeca-1(11),2(7),3,5,12,14-hexaen-9-one] | < 100 nM
9 | CC(C)N1C(=O)N(c2c(F)cc(NCCNCCO)cc2F)c2cc(C#N)cc(F)c2-c2cc(F)cnc21 [1-108, 10-[2,6-difluoro-4-({2-[(2-hydroxyethyl)amino]ethyl}amino)phenyl]-4,15-difluoro-9-oxo-8-(propan-2-yl)-6,8,10-triazatricyclo[9.4.0.0^2,7]pentadeca-1(11),2(7),3,5,12,14-hexaene-13-carbonitrile] | < 100 nM

Continued, values first:

Row | Ki | Structure (SMILES)
10 | < 100 nM | CCN1C(=O)N(c2c(F)cc(N(C)CCNC)cc2F)c2cc(C#N)ccc2-c2cc(Cl)cnc21 [1-146, 4-chloro-10-(2,6-difluoro-4-{methyl[2-(methylamino)ethyl]amino}phenyl)-8-ethyl-9-oxo-6,8,10-triazatricyclo[9.4.0.0^2,7]pentadeca-1(11),2(7),3,5,12,14-hexaene-13-carbonitrile]
11 | < 100 nM | CCN1C(=O)N(c2c(F)cc(NCCNC)cc2F)c2cc(C#N)ccc2-c2cc(C(F)(F)F)cnc21 [1-97, 10-(2,6-difluoro-4-{[2-(methylamino)ethyl]amino}phenyl)-8-ethyl-9-oxo-4-(trifluoromethyl)-6,8,10-triazatricyclo[9.4.0.0^2,7]pentadeca-1(11),2(7),3,5,12,14-hexaene-13-carbonitrile]
12 | < 100 nM | CC(C)N1C(=O)N(c2c(F)cc(NCCNCCO)cc2F)c2cc(C#N)ccc2-c2cc(Cl)cnc21 [1-92, 4-chloro-10-[2,6-difluoro-4-({2-[(2-hydroxyethyl)amino]ethyl}amino)phenyl]-9-oxo-8-(propan-2-yl)-6,8,10-triazatricyclo[9.4.0.0^2,7]pentadeca-1(11),2(7),3,5,12,14-hexaene-13-carbonitrile]
13 | < 100 nM | CCN1C(=O)N(c2c(F)cc(NCCN[C@H]3C[C@@H](O)C3)cc2F)c2cc(C#N)ccc2-c2cc(C(F)(F)F)cnc21 [1-207, 10-{2,6-difluoro-4-[(2-{[(1s,3s)-3-hydroxycyclobutyl]amino}ethyl)amino]phenyl}-8-ethyl-9-oxo-4-(trifluoromethyl)-6,8,10-triazatricyclo[9.4.0.0^2,7]pentadeca-1(11),2(7),3,5,12,14-hexaene-13-carbonitrile]
14 | < 100 nM | CCN1C(=O)N(c2c(F)cc(NCCNCCO)cc2F)c2cc(Cl)ccc2-c2cc(F)cnc21 [1-17, 13-chloro-10-[2,6-difluoro-4-({2-[(2-hydroxyethyl)amino]ethyl}amino)phenyl]-8-ethyl-4-fluoro-6,8,10-triazatricyclo[9.4.0.0^2,7]pentadeca-1(11),2(7),3,5,12,14-hexaen-9-one]
15 | < 100 nM | CCN1C(=O)N(c2c(F)cc(NCCNCC(=O)O)cc2F)c2cc(C#N)ccc2-c2cc(Cl)cnc21 [1-215, 2-({2-[(4-{4-chloro-13-cyano-8-ethyl-9-oxo-6,8,10-triazatricyclo[9.4.0.0^2,7]pentadeca-1(11),2(7),3,5,12,14-hexaen-10-yl}-3,5-difluorophenyl)amino]ethyl}amino)acetic acid]
16 | < 100 nM | CCN1C(=O)N(c2c(F)cc(NCCNCCC(=O)O)cc2F)c2cc(C#N)ccc2-c2cc(Cl)cnc21 [1-178, 3-({2-[(4-{4-chloro-13-cyano-8-ethyl-9-oxo-6,8,10-triazatricyclo[9.4.0.0^2,7]pentadeca-1(11),2(7),3,5,12,14-hexaen-10-yl}-3,5-difluorophenyl)amino]ethyl}amino)propanoic acid]
17 | < 100 nM | CN1C(=O)N(c2c(F)cc(NCCN[C@H]3C[C@H](O)C3)cc2F)c2cc(C#N)ccc2-c2cc(Cl)cnc21 [1-198, 4-chloro-10-{2,6-difluoro-4-[(2-{[(1r,3r)-3-hydroxycyclobutyl]amino}ethyl)amino]phenyl}-8-methyl-9-oxo-6,8,10-triazatricyclo[9.4.0.0^2,7]pentadeca-1(11),2(7),3,5,12,14-hexaene-13-carbonitrile]
18 | > 10000 nM | CCN1C(=O)N(c2c(F)cc(NCC(=O)O)cc2F)c2cc(Cl)ccc2-c2cc(Cl)cnc21 [1-41, 2-[(4-{4,13-dichloro-8-ethyl-9-oxo-6,8,10-triazatricyclo[9.4.0.0^2,7]pentadeca-1(11),2(7),3,5,12,14-hexaen-10-yl}-3,5-difluorophenyl)amino]acetic acid]
19 | < 100 nM | CCN1C(=O)N(c2c(F)cc(NCCNCCNC)cc2F)c2cc(C#N)ccc2-c2cc(Cl)cnc21 [1-127, 4-chloro-10-{2,6-difluoro-4-[(2-{[2-(methylamino)ethyl]amino}ethyl)amino]phenyl}-8-ethyl-9-oxo-6,8,10-triazatricyclo[9.4.0.0^2,7]pentadeca-1(11),2(7),3,5,12,14-hexaene-13-carbonitrile]
20 | < 100 nM | CC(C)N1C(=O)N(c2c(F)cc(NCCNCCCC(=O)O)cc2F)c2cc(C#N)ccc2-c2cc(Cl)cnc21 [1-93, 4-{[2-({4-[4-chloro-13-cyano-9-oxo-8-(propan-2-yl)-6,8,10-triazatricyclo[9.4.0.0^2,7]pentadeca-1(11),2(7),3,5,12,14-hexaen-10-yl]-3,5-difluorophenyl}amino)ethyl]amino}butanoic acid]
21 | < 100 nM | CCN1C(=O)N(c2c(F)cc(NCCNCCNC(C)=O)cc2F)c2cc(C#N)ccc2-c2cc(Cl)cnc21 [1-168, N-[2-({2-[(4-{4-chloro-13-cyano-8-ethyl-9-oxo-6,8,10-triazatricyclo[9.4.0.0^2,7]pentadeca-1(15),2(7),3,5,11,13-hexaen-10-yl}-3,5-difluorophenyl)amino]ethyl}amino)ethyl]acetamide]
22 | < 100 nM | CNCCNc1cc(F)c(N2C(=O)N(CCOC)c3ncc(F)cc3-c3ccc(C#N)cc32)c(F)c1 [1-122, 10-(2,6-difluoro-4-{[2-(methylamino)ethyl]amino}phenyl)-4-fluoro-8-(2-methoxyethyl)-9-oxo-6,8,10-triazatricyclo[9.4.0.0^2,7]pentadeca-1(11),2(7),3,5,12,14-hexaene-13-carbonitrile]
